Test results published in US11685719B2, “Pyridinone MK2 inhibitors and uses thereof” (Xinthera, Inc., priority 2021, dated 2023).
Read-outs that look alike come from different tables or passages of the source.

How the values were obtained:
[1] = biological target: p38a/MK2 (Homo sapiens (Human), UniProt P49137+Q16539); experiment: biochemical; conditions: 10-point 1:3 dilution, 10 μM ATP, 2 h incubation
Method: (§1) Expression vectors of the recombinant MK2 and PRAK kinases were constructed by cloning of the codon optimized gene sequences of MK2 (Uniprot ID P49137, amino acid fragment F46-H400), or PRAK (Uniprot ID Q81W41, amino acid fragment M1-Q471) into pGEX-4T1 (GE) for over expression of these kinases with N-terminal GST-tag. Protein expression was carried out in E. coli BL21 by growing the hosts in TB medium, induction of protein expression with 0.5 mM IPTG at approximate 0.8 OD600, and incubation of the cultures at 18° C. for 14-20 hours afterwards. The harvested cells were resuspended in […] of Lysis buffer (50 mM Tris-HCl, pH 8.0, 500 mM NaCl, 1 mM DTT, 5% glycerol, and 1 mM PMSF) per gram of wet cell mass and homogenized at 4° C. in a microfluidizer (ATS, Suzhou, China) at 14,000 psi pressure, 3 passes. The cell lysates were clarified by centrifugation and the supernatants containing the GST-fusion proteins were purified by affinity chromatography using GSH-Sepharose (GE) gravity flow columns pre-equilibrated in Buffer A (50 mM Tris-HCl, pH 8.0, 500 mM NaCl, 1 mM DTT, and 5% glycerol). After thorough washing of the columns with Buffer A, the bound GST-proteins were eluted by Buffer B (50 mM Tris, pH 8.0, 500 mM NaCl, 1 mM DTT, 5% glycerol, 10 mM glutathione), followed by size-exclusion purification on Superdex 200 column equilibrated in Buffer A. The purified proteins were concentrated to approximately 1 mg/ml and stored at −80° C.
(§2) This study evaluates the inhibitory potency of invention compound on p38/MK2 pathway vs p38/PRAK pathway. More specially the compound concentration (IC50) was determined that inhibited half of the maximal activation of MK2 or PRAK by p38. MK2 activation study was set up without or with a serial of 10-point 1:3 dilution of invention compound at top dose of 1 or 10 μM, and PRAK activation study was set up without or with a serial of 10-point 1:3 dilution of invention compound at top dose of 300 μM. The MIK2 and PRAK activity were determined by the phosphorylation level of HSP27 peptide conjugated with FITC.

[2] = biological target: p38a/PRAK (Homo sapiens (Human), UniProt Q16539); experiment: biochemical; conditions: 10-point 1:3 dilution, top dose 300 μM; 10 μM ATP, 2 h incubation; read-out: p38a/PRAK Enzyme pIC50 (converted)
Sequence of p38a/PRAK (Q16539 whole entry): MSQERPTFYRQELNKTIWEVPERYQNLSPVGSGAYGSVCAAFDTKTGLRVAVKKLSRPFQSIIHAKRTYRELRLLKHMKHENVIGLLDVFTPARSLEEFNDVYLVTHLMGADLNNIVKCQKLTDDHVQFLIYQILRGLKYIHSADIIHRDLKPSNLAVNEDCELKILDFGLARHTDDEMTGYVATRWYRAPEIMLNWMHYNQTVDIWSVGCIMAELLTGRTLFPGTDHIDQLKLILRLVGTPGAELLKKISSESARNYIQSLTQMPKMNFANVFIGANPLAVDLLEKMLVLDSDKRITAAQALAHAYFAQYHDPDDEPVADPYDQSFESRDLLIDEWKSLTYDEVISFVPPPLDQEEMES
Method: as §1, §2

[3] = top dose 1 μM, read-out: p38a/MK2 (1 μM) Enzyme pIC50 (converted)

Sequence of p38a/MK2 (Q16539 whole entry, the tested form may be a part): as the sequence (Q16539 whole entry) above
Sequence of p38a/MK2 (P49137 46-400): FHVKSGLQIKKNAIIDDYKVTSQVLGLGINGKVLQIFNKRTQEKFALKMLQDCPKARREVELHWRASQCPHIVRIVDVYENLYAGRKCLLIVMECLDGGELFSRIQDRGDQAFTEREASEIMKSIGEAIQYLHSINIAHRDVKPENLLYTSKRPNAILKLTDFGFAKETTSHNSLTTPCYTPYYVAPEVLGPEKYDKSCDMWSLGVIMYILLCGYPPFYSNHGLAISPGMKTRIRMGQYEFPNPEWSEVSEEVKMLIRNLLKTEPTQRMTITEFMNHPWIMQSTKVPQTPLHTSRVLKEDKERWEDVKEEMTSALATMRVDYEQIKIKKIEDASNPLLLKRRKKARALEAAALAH

Row | SMILES | IC50 [1, 3] | IC50 [2] | IC50 ([1]; top dose 10 μM, read-out: p38a/MK2 (10 μM) Enzyme pIC50 (converted))
1 | COCc1cc(OCc2ncc(F)cc2F)c(Cl)c(=O)n1-c1cc(-n2cccc(C(C)(C)O)c2=O)ncc1C (single isomer, unassigned) [Example 3A, rel-3-chloro-4-[(3,5-difluoropyridin-2-yl)methoxy]-2′-[3-(2-hydroxypropan-2-yl)-2-oxopyridin-1-yl]-6-(methoxymethyl)-5′-methyl-[1,4′-bipyridin]-2-one] | 0.00631 µM | 5.01 µM | –
2 | Cc1cnc(-n2cccc(C(C)(C)CO)c2=O)cc1-n1c(C)cc(OCc2ncc(F)cc2F)c(Cl)c1=O (single isomer, unassigned) [Example 11B, rel-3-chloro-4-[(3,5-difluoropyridin-2-yl)methoxy]-2′-[3-(1-hydroxy-2-methylpropan-2-yl)-2-oxopyridin-1-yl]-5′,6-dimethyl-[1,4′-bipyridin]-2-one] | > 1 µM | > 316 µM | –
3 | Cc1cnc(-n2cccc(C3(O)CCC3)c2=O)cc1-n1c(C)cc(OCc2ncc(F)cc2F)c(Cl)c1=O (single isomer, unassigned) [Example 12B, rel-3-chloro-4-[(3,5-difluoropyridin-2-yl)methoxy]-2′-[3-(1-hydroxycyclobutyl)-2-oxopyridin-1-yl]-5′,6-dimethyl-[1,4′-bipyridin]-2-one] | > 1 µM | > 316 µM | –
4 | Cc1ccc(-n2cccc(C(C)(C)O)c2=O)cc1-n1c(C)cc(OCc2ncc(F)cc2F)c(Cl)c1=O (single isomer, unassigned) [Example 2A, rel-3-chloro-4-[(3,5-difluoropyridin-2-yl)methoxy]-1-{5-[3-(2-hydroxypropan-2-yl)-2-oxopyridin-1-yl]-2-methylphenyl}-6-methylpyridin-2-one] | 0.00398 µM | 1.26 µM | –
5 | Cc1cnc(-n2cccc(C(C)(C)O)c2=O)cc1-n1c(C)cc(OCc2ncc(F)cc2F)c(Cl)c1=O (single isomer, unassigned) [Example 1A, rel-3-chloro-4-[(3,5-difluoropyridin-2-yl)methoxy]-2′-[3-(2-hydroxypropan-2-yl)-2-oxopyridin-1-yl]-5′,6-dimethyl-[1,4′-bipyridin]-2-one] | 0.002 µM | 3.16 µM | 0.00316 µM
6 | Cc1cnc(-n2cccc([C@](C)(O)C3CC3)c2=O)cc1-n1c(C)cc(OCc2ncc(F)cc2F)c(Cl)c1=O (single isomer, unassigned) [Example 14C, rel-3-chloro-2′-[3-(1-cyclopropyl-1-hydroxyethyl)-2-oxopyridin-1-yl]-4-[(3,5-difluoropyridin-2-yl)methoxy]-5′,6-dimethyl-[1,4′-bipyridin]-2-one] | > 1 µM | > 316 µM | –
7 | Cc1cnc(-n2nccc(C(C)(C)O)c2=O)cc1-n1c(C)cc(OCc2ncc(F)cc2F)c(Cl)c1=O (single isomer, unassigned) [Example 9A, rel-3-chloro-4-[(3,5-difluoropyridin-2-yl)methoxy]-2′-[5-(2-hydroxypropan-2-yl)-6-oxopyridazin-1-yl]-5′,6-dimethyl-[1,4′-bipyridin]-2-one] | 0.0126 µM | 2 µM | –
8 | Cc1cnc(-n2cccc(C(C)(C)O)c2=O)cc1-n1c(C)cc(OCc2ncc(F)cc2Cl)c(Cl)c1=O (single isomer, unassigned) [Example 7A, rel-3-chloro-4-[(3-chloro-5-fluoropyridin-2-yl)methoxy]-2′-[3-(2-hydroxypropan-2-yl)-2-oxopyridin-1-yl]-5′,6-dimethyl-[1,4′-bipyridin]-2-one] | 0.001 µM | 7.94 µM | –
9 | Cc1cnc(-n2cccc(C(C)(C)CO)c2=O)cc1-n1c(C)cc(OCc2ncc(F)cc2F)c(Cl)c1=O (single isomer, unassigned) [Example 11A, rel-3-chloro-4-[(3,5-difluoropyridin-2-yl)methoxy]-2′-[3-(1-hydroxy-2-methylpropan-2-yl)-2-oxopyridin-1-yl]-5′,6-dimethyl-[1,4′-bipyridin]-2-one] | 0.00398 µM | 5.01 µM | –
10 | Cc1cnc(-n2cccc(C(C)(C)O)c2=O)cc1-n1c(C)cc(OCc2ncc(F)cc2Cl)c(Cl)c1=O (single isomer, unassigned) [Example 7B, rel-3-chloro-4-[(3-chloro-5-fluoropyridin-2-yl)methoxy]-2′-[3-(2-hydroxypropan-2-yl)-2-oxopyridin-1-yl]-5′,6-dimethyl-[1,4′-bipyridin]-2-one] | > 1 µM | > 316 µM | –
11 | Cc1cnc(-n2cncc(C(C)(C)O)c2=O)cc1-n1c(C)cc(OCc2ncc(F)cc2F)c(Cl)c1=O (single isomer, unassigned) [Example 10B, rel-3-chloro-4-[(3,5-difluoropyridin-2-yl)methoxy]-2′-[5-(2-hydroxypropan-2-yl)-6-oxopyrimidin-1-yl]-5′,6-dimethyl-[1,4′-bipyridin]-2-one] | > 1 µM | > 316 µM | –
12 | Cc1cnc(-n2cc(C(C)(C)O)ccc2=O)cc1-n1c(C)cc(OCc2ncc(F)cc2F)c(Cl)c1=O (single isomer, unassigned) [Example 13A, rel-3-chloro-4-[(3,5-difluoropyridin-2-yl)methoxy]-2′-[5-(2-hydroxypropan-2-yl)-2-oxopyridin-1-yl]-5′,6-dimethyl-[1,4′-bipyridin]-2-one] | > 1 µM | > 316 µM | –

More lines, main results first:

Row | IC50 [1, 3] | IC50 [2] | SMILES | IC50 ([1]; top dose 10 μM, read-out: p38a/MK2 (10 μM) Enzyme pIC50 (converted))
13 | 0.00398 µM | 6.31 µM | Cc1cnc(-n2cccc(C(C)(C)O)c2=O)cc1-n1c(C)nc(OCc2ncc(F)cc2F)c(Cl)c1=O (single isomer, unassigned) [Example 25A, rel-4′-{5-chloro-4-[(3,5-difluoropyridin-2-yl)methoxy]-2-methyl-6-oxopyrimidin-1-yl}-3-(2-hydroxypropan-2-yl)-5′-methyl-[1,2′-bipyridin]-2-one] | –
14 | > 0.1 µM | > 316 µM | Cc1cnc(-n2ccn(C(C)(C)CO)c2=O)cc1-n1c(C)cc(OCc2ncc(F)cc2F)c(Cl)c1=O (single isomer, unassigned) [Example 27A, rel-3-chloro-4-[(3,5-difluoropyridin-2-yl)methoxy]-2′-[3-(1-hydroxy-2-methylpropan-2-yl)-2-oxoimidazol-1-yl]-5′,6-dimethyl-[1,4′-bipyridin]-2-one] | –
15 | > 1 µM | > 316 µM | Cc1cnc(-n2cccc([C@@](C)(O)C3CC3)c2=O)cc1-n1c(C)cc(OCc2ncc(F)cc2F)c(Cl)c1=O (single isomer, unassigned) [Example 14D, rel-3-chloro-2′-[3-(1-cyclopropyl-1-hydroxyethyl)-2-oxopyridin-1-yl]-4-[(3,5-difluoropyridin-2-yl)methoxy]-5′,6-dimethyl-[1,4′-bipyridin]-2-one] | –
16 | 0.0126 µM | 0.794 µM | Cc1cnc(-n2ccn(C(C)(C)CO)c2=O)cc1-n1c(C)cc(OCc2ncc(F)cc2F)c(Cl)c1=O (single isomer, unassigned) [Example 27B, rel-3-chloro-4-[(3,5-difluoropyridin-2-yl)methoxy]-2′-[3-(1-hydroxy-2-methylpropan-2-yl)-2-oxoimidazol-1-yl]-5′,6-dimethyl-[1,4′-bipyridin]-2-one] | –
17 | 0.00251 µM | 6.31 µM | [2H]C([2H])(Oc1cc(C)n(-c2cc(-n3cccc(C(C)(C)O)c3=O)ncc2C)c(=O)c1Cl)c1ncc(F)cc1Cl (single isomer, unassigned) [Example 23A, rel-4′-{3-chloro-4-[(3-chloro-5-fluoropyridin-2-yl)(2H2)methoxy]-6-methyl-2-oxopyridin-1-yl}-3-(2-hydroxypropan-2-yl)-5′-methyl-[1,2′-bipyridin]-2-one] | –
18 | > 0.1 µM | > 316 µM | [2H]C([2H])(Oc1cc(C)n(-c2cc(-n3cccc(C(C)(C)O)c3=O)ncc2C)c(=O)c1Cl)c1ncc(F)cc1Cl (single isomer, unassigned) [Example 23B, rel-4′-{3-chloro-4-[(3-chloro-5-fluoropyridin-2-yl)(2H2)methoxy]-6-methyl-2-oxopyridin-1-yl}-3-(2-hydroxypropan-2-yl)-5′-methyl-[1,2′-bipyridin]-2-one] | –
19 | 0.001 µM | 3.16 µM | [2H]C([2H])(Oc1cc(C)n(-c2cc(-n3ccnc(C(C)(C)O)c3=O)ncc2C)c(=O)c1Cl)c1ncc(Cl)cc1F (single isomer, unassigned) [Example 20A, rel-3-chloro-4-((5-chloro-3-fluoropyridin-2-yl)methoxy-d2)-2′-(3-(2-hydroxypropan-2-yl)-2-oxopyrazin-1(2H)-yl)-5′,6-dimethyl-2H-[1,4′-bipyridin]-2-one] | –
